Data reported in PubChem BioAssay (NCI).
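All cell lines were grown in 96-well plates and treated with compound for 48 hours. Here, GI50 denotes the concentration required for 50% inhibition of growth. Definition used: TGI = concentration required for complete inhibition of growth.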

Experiments:
Assay in all cases: DTP human tumour cell line panel, 48 h
T-47D breast = tested on: T-47D breast
OVCAR-8 ovarian = tested on: OVCAR-8 ovarian
MDA-MB-231 breast = tested on: MDA-MB-231 breast
786-0 renal = tested on: 786-0 renal
RPMI-8226 leukemia = tested on: RPMI-8226 leukemia
BT-549 breast = tested on: BT-549 breast
MALME-3M melanoma = tested on: MALME-3M melanoma
A549 NSCLC = tested on: A549 NSCLC
SN12C renal = tested on: SN12C renal
NCI-H226 lung = tested on: NCI-H226 lung
SK-MEL-2 melanoma = tested on: SK-MEL-2 melanoma
NCI/ADR-RES ovarian = tested on: NCI/ADR-RES ovarian
EKVX NSCLC = tested on: EKVX NSCLC
SF-539 CNS = tested on: SF-539 CNS
OVCAR-3 ovarian = tested on: OVCAR-3 ovarian
HCC-2998 colon = tested on: HCC-2998 colon
PC-3 prostate = tested on: PC-3 prostate
M14 melanoma = tested on: M14 melanoma
IGROV1 ovarian = tested on: IGROV1 ovarian
MDA-MB-435 = tested on: MDA-MB-435
SF-295 CNS = tested on: SF-295 CNS
MOLT-4 leukemia = tested on: MOLT-4 leukemia
HCT-116 colon = tested on: HCT-116 colon
UACC-257 melanoma = tested on: UACC-257 melanoma
MCF7 breast = tested on: MCF7 breast
HOP-92 NSCLC = tested on: HOP-92 NSCLC
CAKI-1 renal = tested on: CAKI-1 renal
UACC-62 melanoma = tested on: UACC-62 melanoma
RXF 393 renal = tested on: RXF 393 renal
U251 CNS = tested on: U251 CNS
SK-MEL-5 melanoma = tested on: SK-MEL-5 melanoma
CCRF-CEM leukemia = tested on: CCRF-CEM leukemia
KM12 colon = tested on: KM12 colon
SNB-75 CNS = tested on: SNB-75 CNS
TK-10 renal = tested on: TK-10 renal
HL-60(TB) leukemia = tested on: HL-60(TB) leukemia
NCI-H522 lung = tested on: NCI-H522 lung
HCT-15 colon = tested on: HCT-15 colon
SW-620 colon = tested on: SW-620 colon
SNB-19 CNS = tested on: SNB-19 CNS
UO-31 renal = tested on: UO-31 renal
NCI-H460 lung = tested on: NCI-H460 lung
HS 578T breast = tested on: HS 578T breast
SF-268 CNS = tested on: SF-268 CNS
NCI-H23 lung = tested on: NCI-H23 lung
DU-145 prostate = tested on: DU-145 prostate
A498 renal = tested on: A498 renal
ACHN renal = tested on: ACHN renal
OVCAR-4 ovarian = tested on: OVCAR-4 ovarian
K-562 leukemia = tested on: K-562 leukemia
SK-MEL-28 melanoma = tested on: SK-MEL-28 melanoma
OVCAR-5 ovarian = tested on: OVCAR-5 ovarian
LOX IMVI melanoma = tested on: LOX IMVI melanoma
COLO 205 colon = tested on: COLO 205 colon
SK-OV-3 ovarian = tested on: SK-OV-3 ovarian
HOP-62 NSCLC = tested on: HOP-62 NSCLC

O=C(c1ccco1)c1c(C(F)(F)F)n([O-])c2ccc(F)cc2[n+]1=O showed a GI50 (T-47D breast) of 540 nM, a TGI (T-47D breast) of 3210 nM and a GI50 (OVCAR-8 ovarian) of 558 nM. For the same molecule, the TGI (OVCAR-8 ovarian) was 1170 nM, the GI50 (MDA-MB-231 breast) was 1610 nM and the TGI (MDA-MB-231 breast) was 3440 nM. For the same molecule, the GI50 (786-0 renal) was 1270 nM, the TGI (786-0 renal) was 3940 nM and the GI50 (RPMI-8226 leukemia) was 180 nM. For the same molecule, the TGI (RPMI-8226 leukemia) was 573 nM, the GI50 (BT-549 breast) was 996 nM and the TGI (BT-549 breast) was 2980 nM. It also gave a GI50 (MALME-3M melanoma) of 1090 nM, a TGI (MALME-3M melanoma) of 3210 nM and a GI50 (A549 NSCLC) of 3080 nM. For the same molecule, the TGI (A549 NSCLC) was 9870 nM, the GI50 (SN12C renal) was 1330 nM and the TGI (SN12C renal) was 3380 nM. For the same molecule, the GI50 (NCI-H226 lung) was 5380 nM, the TGI (NCI-H226 lung) was 22100 nM and the GI50 (SK-MEL-2 melanoma) was 910 nM. For the same molecule, the TGI (SK-MEL-2 melanoma) was 2470 nM, the GI50 (NCI/ADR-RES ovarian) was 2190 nM and the TGI (NCI/ADR-RES ovarian) was 5590 nM. It also gave a GI50 (EKVX NSCLC) of 2950 nM, a TGI (EKVX NSCLC) of 8090 nM and a GI50 (SF-539 CNS) of 2550 nM. For the same molecule, the TGI (SF-539 CNS) was 8320 nM, the GI50 (OVCAR-3 ovarian) was 757 nM and the TGI (OVCAR-3 ovarian) was 2240 nM. The GI50 (HCC-2998 colon) was 775 nM, the TGI (HCC-2998 colon) was 2020 nM and the GI50 (PC-3 prostate) was 1010 nM. For the same molecule, the TGI (PC-3 prostate) was 2470 nM, the GI50 (M14 melanoma) was 1480 nM and the TGI (M14 melanoma) was 2930 nM. The GI50 (IGROV1 ovarian) was 1230 nM, the TGI (IGROV1 ovarian) was 2780 nM and the GI50 (MDA-MB-435) was 1300 nM. It also gave a TGI (MDA-MB-435) of 2750 nM, a GI50 (SF-295 CNS) of 4690 nM and a TGI (SF-295 CNS) of 17900 nM. It also gave a GI50 (MOLT-4 leukemia) of 219 nM, a TGI (MOLT-4 leukemia) of 540 nM and a GI50 (HCT-116 colon) of 824 nM. For the same molecule, the TGI (HCT-116 colon) was 2410 nM, the GI50 (UACC-257 melanoma) was 1470 nM and the TGI (UACC-257 melanoma) was 2810 nM. It also gave a GI50 (MCF7 breast) of 258 nM, a TGI (MCF7 breast) of 1890 nM and a GI50 (HOP-92 NSCLC) of 802 nM. The TGI (HOP-92 NSCLC) was 2550 nM, the GI50 (CAKI-1 renal) was 1600 nM and the TGI (CAKI-1 renal) was 3260 nM. The GI50 (UACC-62 melanoma) was 1210 nM, the TGI (UACC-62 melanoma) was 2550 nM and the GI50 (RXF 393 renal) was 759 nM. It also gave a TGI (RXF 393 renal) of 2140 nM, a GI50 (U251 CNS) of 1330 nM and a TGI (U251 CNS) of 2600 nM. It also gave a GI50 (SK-MEL-5 melanoma) of 1840 nM, a TGI (SK-MEL-5 melanoma) of 5880 nM and a GI50 (CCRF-CEM leukemia) of 400 nM. For the same molecule, the TGI (CCRF-CEM leukemia) was 2970 nM, the GI50 (KM12 colon) was 213 nM and the TGI (KM12 colon) was 568 nM. The GI50 (SNB-75 CNS) was 1590 nM, the TGI (SNB-75 CNS) was 7910 nM and the GI50 (TK-10 renal) was 1420 nM. The TGI (TK-10 renal) was 3360 nM, the GI50 (HL-60(TB) leukemia) was 186 nM and the TGI (HL-60(TB) leukemia) was 452 nM. It also gave a GI50 (NCI-H522 lung) of 1700 nM, a TGI (NCI-H522 lung) of 3440 nM and a GI50 (HCT-15 colon) of 219 nM. For the same molecule, the TGI (HCT-15 colon) was 855 nM, the GI50 (SW-620 colon) was 316 nM and the TGI (SW-620 colon) was 1160 nM. For the same molecule, the GI50 (SNB-19 CNS) was 1060 nM, the TGI (SNB-19 CNS) was 2410 nM and the GI50 (UO-31 renal) was 1600 nM. For the same molecule, the TGI (UO-31 renal) was 3000 nM, the GI50 (NCI-H460 lung) was 926 nM and the TGI (NCI-H460 lung) was 11700 nM. For the same molecule, the GI50 (HS 578T breast) was 1840 nM, the TGI (HS 578T breast) was 7080 nM and the GI50 (SF-268 CNS) was 1240 nM. The TGI (SF-268 CNS) was 2850 nM, the GI50 (NCI-H23 lung) was 1020 nM and the TGI (NCI-H23 lung) was 2490 nM. It also gave a GI50 (DU-145 prostate) of 2240 nM, a TGI (DU-145 prostate) of 7040 nM and a GI50 (A498 renal) of 8530 nM. The TGI (A498 renal) was 24300 nM, the GI50 (ACHN renal) was 1330 nM and the TGI (ACHN renal) was 2620 nM. The GI50 (OVCAR-4 ovarian) was 1350 nM, the TGI (OVCAR-4 ovarian) was 2640 nM and the GI50 (K-562 leukemia) was 65 nM. For the same molecule, the TGI (K-562 leukemia) was 219 nM, the GI50 (SK-MEL-28 melanoma) was 1460 nM and the TGI (SK-MEL-28 melanoma) was 2790 nM. For the same molecule, the GI50 (OVCAR-5 ovarian) was 5970 nM, the TGI (OVCAR-5 ovarian) was 17500 nM and the GI50 (LOX IMVI melanoma) was 785 nM. The TGI (LOX IMVI melanoma) was 2240 nM, the GI50 (COLO 205 colon) was 524 nM and the TGI (COLO 205 colon) was 1360 nM. It also gave a GI50 (SK-OV-3 ovarian) of 6020 nM, a TGI (SK-OV-3 ovarian) of 18600 nM and a GI50 (HOP-62 NSCLC) of 3000 nM. It also gave a TGI (HOP-62 NSCLC) of 13700 nM.
